Columns and labels:
JAK2 = JAK2 (Homo sapiens, UniProt O60674); assay: JAK/TYK2 assay (Kinase Glo luminescence): Jak2 kinase assay; assay type: biochemical; conditions: 0.8 nM enzyme, 2 uM ATP, 4 uM pEY, 1 hr; read-out: Jak2 kinase assay: IC50 Geomean
Description: (§1) Example A: JAK/TYK2 Assay 10 mM test compound stock or 1 mM control compound stock (tofocitinib, ruxolitinib or staurosporine) in DMSO was diluted to 0.4 mM in DMSO. A 3-fold series dilution was then performed in DMSO to generate 10 different compound concentrations. The assay was carried out in 384-well white plate. 0.5 μL of 40× compound DMSO solution at different concentrations was mixed with 10 uL 2× enzyme prepared in reaction buffer (20 mM HEPES, 10 mM MgCl2, 0.01% Tween, 1 mM DTT, pH 7.5). 10 uL 2× substrate mixture prepared in reaction buffer was then added to start the reaction. A short spin was done to settle down all solutions to the bottom of the plate. Final concentrations of test compound in the reaction mixture were 10000, 3333, 1111, 370, 123, 41.2, 13.7, 4.57, 1.52 and 0.51 nM, Concentrations of control compound were ten times less. Enzymatic reaction was conducted at 25° C. for 1-2 hours. 10 uL of Kinase Glo Reagents was added to stop the reaction and generate the luminescent signal which was measured using Envision. Luminescence signal was inversely related to kinase activity. […] The mixture without any compound was the positive control. [table]

[1] = tested on: JAK2: GM-CSF stimulated STAT5 phosphorylation; assay: Co-stimulation assay in lysed whole blood; JAK2: GM-CSF stimulated STAT5 phosphorylation; assay type: cell-based, human; conditions: Homo sapiens, read-out: GMCSF/J2/pS5: GeoMean (nM)
Description: Example C: Co-Stimulation Assay in Lysed Whole Blood; JAK2: GM-CSF Stimulated STAT5 Phosphorylation and JAK1/TYK2 Stimulated STAT1 Phosphorylation Assay
Human Blood Lysis using abcam's RBC lysis buffer
Dilute RBC lysis buffer to 1× in distilled water. Add 2 mL blood to 38 mL of 1×RBC-lysis buffer. Incubate for 15 mins at RT, in dark. Spin at 300 g, 5 mins, to collect the pellet. Re-lyse if necessary. Re-suspend pellet in 5 mL of cRPMI.
Aliquot 80 μL of lysed human blood in to wells of 96 deep-well plate. Add 10 μl of (10× conc.) of different concentrations of compounds to all wells except controls (unstained and unstimulated) and mix it with the help of 100 uL multichannel Add 10 uL of RPMI media in controls. For dilution of compounds and dilution range please refer Appendix. Incubate on water bath or CO2 incubator for 1 hour at 37° C. Add 10 μl of (10× conc.) of cytokine mix (GM-CSF and IFNa) (final conc. 10 ng/mL of GM-CSF and 100 ng/mL of IFNa) to each well except unstimulated and unstained controls and incubate further for 20 minutes on water bath at 37° C.
Add 900 μL of prewarmed 1× Fix/Lyse solution (Appendix) and mix it properly using 1000 μl multichannel, incubate further on water bath at 37° C. for 10 minutes (which includes time of addition). Centrifuge at 800×g for 5 minutes at 40° C.; remove 900 uL of supernatant and add 900 μL of 1×PBS. Centrifuge at 800×g for 5 minutes at 40° C., remove 900 μL of supernatant. Wash one more time with 900 μL of PBS (optional) and resuspend pellets in 100 uL of PBS.
Disrupt the pellet by gentle tapping and resuspend in 1000 μL of BD Phosflow Perm Buffer III and incubate plate on ice for 30 minutes. Centrifuge plate at 800×g for 5 minutes at 40° C. Wash two more times with 1000 μL of BD Pharmingen Stain Buffer.
Disrupt the pellet by gentle tapping. Resuspend pellets in 100 uL of Stain Buffer and add 5 μL of pSTAT5_AF488 Ab and 5 uL of pSTAT1_PE in all wells except unstained control and mix properly using 200 μl multichannel, incubate overnight at […]. Add 900 μL of wash buffer and centrifuge at 1800 rpm for 3 minutes at […]. Wash one more time with 1000 μL of BD Pharmingen Stain Buffer. Finally resuspend the pellet in 300 uL of BD Pharmingen Stain Buffer. Transfer the cells to 96-well v-bottom plate and acquire the cells in Beckman Coulter CytExpert. Acquiring cells in Flow Cytometer: Keep the threshold value to 250 and cell concentration should not exceed 100-500 cells/4. Acquire at least 5,000-10,000 cells.
RPMI 1640 Complete Medium: RPMI 1640 media+10% FBS.
Cytokine dilution: 1) GM-CSF Stock at 100 ug/mL. Prepare an intermediate dilution of 1 ug/mL by adding 2 uL of stock into 198 uL of cRPMI. Further dilute to 100 ng/mL by adding 100 uL of the intermediate stock to 900 uL of cRPMI. 2) IFNa Stock at 200 ug/mL. Dilute IFNa stock 1:200 by adding 5 uL of stock into the 1000 uL of 100 ng/mL GM-CSF working stock as above to give a combined working stock of 1000 ng/mL of IFNa and 100 ng/mL GM-CSF (10×). Keep it on ice until used.
Lyse/Fix buffer preparation: Dilute 5× Lyse/Fix buffer to 1× using MQ water and keep at 37° C. until used.
BD Phosflow perm buffer III: Keep on ice/fridge

JAK1 = JAK1 (Homo sapiens, UniProt P23458); assay: JAK/TYK2 assay (Kinase Glo luminescence): Jak1 kinase assay; assay type: biochemical; conditions: 7.5 nM enzyme, 2 uM ATP, 30 uM IRS-1, 1 hr
Sequence of JAK1 (P23458 whole entry, species assumed): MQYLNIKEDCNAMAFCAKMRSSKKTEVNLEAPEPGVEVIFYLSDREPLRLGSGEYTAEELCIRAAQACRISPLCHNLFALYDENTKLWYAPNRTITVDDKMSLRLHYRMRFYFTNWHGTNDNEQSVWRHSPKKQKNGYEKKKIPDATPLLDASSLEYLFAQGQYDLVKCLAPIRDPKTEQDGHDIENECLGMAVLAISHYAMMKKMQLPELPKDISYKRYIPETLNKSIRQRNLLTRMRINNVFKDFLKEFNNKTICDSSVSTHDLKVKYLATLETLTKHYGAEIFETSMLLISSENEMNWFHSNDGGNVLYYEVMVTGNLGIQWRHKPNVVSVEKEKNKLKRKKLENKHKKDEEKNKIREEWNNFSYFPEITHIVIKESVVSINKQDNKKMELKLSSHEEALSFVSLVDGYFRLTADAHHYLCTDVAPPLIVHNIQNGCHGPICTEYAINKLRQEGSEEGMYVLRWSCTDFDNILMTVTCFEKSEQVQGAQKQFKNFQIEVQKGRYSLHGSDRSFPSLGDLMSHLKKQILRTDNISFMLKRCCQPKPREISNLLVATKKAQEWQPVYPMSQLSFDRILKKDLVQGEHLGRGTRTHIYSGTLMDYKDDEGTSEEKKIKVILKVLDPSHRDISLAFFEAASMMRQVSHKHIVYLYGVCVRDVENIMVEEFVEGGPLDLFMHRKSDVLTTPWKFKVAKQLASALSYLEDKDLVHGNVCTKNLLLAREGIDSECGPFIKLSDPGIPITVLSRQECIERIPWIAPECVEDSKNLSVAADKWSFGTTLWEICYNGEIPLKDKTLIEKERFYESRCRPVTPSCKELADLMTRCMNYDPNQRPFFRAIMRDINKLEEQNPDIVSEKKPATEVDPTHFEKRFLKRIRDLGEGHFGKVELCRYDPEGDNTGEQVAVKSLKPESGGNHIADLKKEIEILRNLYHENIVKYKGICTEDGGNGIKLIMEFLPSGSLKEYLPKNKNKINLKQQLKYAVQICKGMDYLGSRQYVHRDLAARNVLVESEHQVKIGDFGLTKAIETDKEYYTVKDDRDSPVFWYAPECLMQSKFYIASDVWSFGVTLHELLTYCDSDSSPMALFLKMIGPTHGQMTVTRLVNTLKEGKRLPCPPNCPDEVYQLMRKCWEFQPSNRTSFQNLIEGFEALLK
Description: as §1

TYK2 = TYK2 (Homo sapiens, UniProt P29597); assay: JAK/TYK2 assay (Kinase Glo luminescence): Tyk2 kinase assay; assay type: biochemical; conditions: 9 nM enzyme, 2 uM ATP, 30 uM IRS-1, 1 hr; read-out: Tyk2 kinase assay: IC50 Geomean
Sequence of TYK2 (P29597 whole entry, species assumed): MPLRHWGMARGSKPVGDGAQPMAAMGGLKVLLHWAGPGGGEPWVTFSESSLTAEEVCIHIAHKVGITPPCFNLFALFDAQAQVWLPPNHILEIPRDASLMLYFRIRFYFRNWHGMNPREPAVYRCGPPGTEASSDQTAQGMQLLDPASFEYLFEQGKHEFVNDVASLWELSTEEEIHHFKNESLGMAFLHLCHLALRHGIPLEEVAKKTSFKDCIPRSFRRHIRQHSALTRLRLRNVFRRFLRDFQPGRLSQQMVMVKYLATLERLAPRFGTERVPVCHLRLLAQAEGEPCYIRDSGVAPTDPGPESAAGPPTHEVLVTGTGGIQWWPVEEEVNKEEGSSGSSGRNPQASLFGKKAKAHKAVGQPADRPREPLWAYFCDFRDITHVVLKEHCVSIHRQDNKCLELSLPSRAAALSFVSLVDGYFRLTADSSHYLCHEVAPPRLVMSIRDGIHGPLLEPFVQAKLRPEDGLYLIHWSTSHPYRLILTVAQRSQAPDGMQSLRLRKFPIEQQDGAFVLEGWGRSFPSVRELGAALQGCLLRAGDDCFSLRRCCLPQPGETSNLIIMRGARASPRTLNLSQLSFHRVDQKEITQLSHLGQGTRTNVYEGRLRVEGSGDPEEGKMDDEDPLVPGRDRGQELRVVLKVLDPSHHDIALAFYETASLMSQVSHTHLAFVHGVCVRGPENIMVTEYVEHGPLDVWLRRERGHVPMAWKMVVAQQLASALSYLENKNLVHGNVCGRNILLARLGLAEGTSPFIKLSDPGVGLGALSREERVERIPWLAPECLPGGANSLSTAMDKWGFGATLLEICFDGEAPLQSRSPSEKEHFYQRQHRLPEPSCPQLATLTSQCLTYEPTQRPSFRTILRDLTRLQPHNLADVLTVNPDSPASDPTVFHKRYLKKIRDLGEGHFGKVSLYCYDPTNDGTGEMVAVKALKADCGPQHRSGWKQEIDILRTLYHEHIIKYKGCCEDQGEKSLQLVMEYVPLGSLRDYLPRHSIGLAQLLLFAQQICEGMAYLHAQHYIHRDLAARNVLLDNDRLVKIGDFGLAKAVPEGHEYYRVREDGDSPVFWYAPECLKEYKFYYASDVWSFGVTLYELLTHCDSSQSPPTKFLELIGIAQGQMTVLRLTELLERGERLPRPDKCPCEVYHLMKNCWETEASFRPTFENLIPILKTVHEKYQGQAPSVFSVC
Description: as §1

JAK3 = molecular target: T1, JAK3 (Homo sapiens, UniProt P52333); assay: JAK/TYK2 assay (Kinase Glo luminescence): Jak3 kinase assay; assay type: biochemical; conditions: 1.5 nM enzyme, 2 uM ATP, 4 uM pEY, 1 hr; read-out: Jak3 kinase assay: IC50 Geomean
T1 sequence (P52333 1-1124): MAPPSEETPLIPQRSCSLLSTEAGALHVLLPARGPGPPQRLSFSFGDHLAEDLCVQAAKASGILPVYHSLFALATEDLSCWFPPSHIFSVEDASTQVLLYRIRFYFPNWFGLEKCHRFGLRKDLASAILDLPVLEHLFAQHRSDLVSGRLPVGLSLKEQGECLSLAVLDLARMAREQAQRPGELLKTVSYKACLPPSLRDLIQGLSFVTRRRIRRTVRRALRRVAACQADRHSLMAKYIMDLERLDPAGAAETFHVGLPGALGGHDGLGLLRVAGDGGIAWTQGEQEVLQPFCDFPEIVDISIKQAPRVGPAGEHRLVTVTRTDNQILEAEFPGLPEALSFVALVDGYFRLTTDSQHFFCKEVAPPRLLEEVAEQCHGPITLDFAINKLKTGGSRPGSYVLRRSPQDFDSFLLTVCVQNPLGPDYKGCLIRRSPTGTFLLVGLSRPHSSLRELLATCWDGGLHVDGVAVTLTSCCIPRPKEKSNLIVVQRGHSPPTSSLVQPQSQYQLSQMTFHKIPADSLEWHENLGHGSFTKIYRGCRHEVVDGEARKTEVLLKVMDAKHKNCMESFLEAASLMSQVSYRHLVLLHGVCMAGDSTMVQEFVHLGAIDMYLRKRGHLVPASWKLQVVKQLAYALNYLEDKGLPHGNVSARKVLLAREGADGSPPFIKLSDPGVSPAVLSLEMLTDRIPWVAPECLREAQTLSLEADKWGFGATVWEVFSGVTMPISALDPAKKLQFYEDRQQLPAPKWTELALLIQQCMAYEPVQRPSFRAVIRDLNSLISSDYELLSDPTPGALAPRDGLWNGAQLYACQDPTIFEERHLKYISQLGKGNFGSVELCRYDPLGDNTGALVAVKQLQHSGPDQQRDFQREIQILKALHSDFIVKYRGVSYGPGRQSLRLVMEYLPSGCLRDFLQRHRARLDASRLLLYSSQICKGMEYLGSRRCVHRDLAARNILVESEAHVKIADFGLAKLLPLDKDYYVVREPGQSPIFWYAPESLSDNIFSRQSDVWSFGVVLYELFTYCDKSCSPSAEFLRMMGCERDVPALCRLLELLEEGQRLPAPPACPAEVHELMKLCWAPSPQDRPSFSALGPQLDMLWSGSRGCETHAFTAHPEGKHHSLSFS
Description: as §1

Sequence of JAK2 (O60674 whole entry, species assumed): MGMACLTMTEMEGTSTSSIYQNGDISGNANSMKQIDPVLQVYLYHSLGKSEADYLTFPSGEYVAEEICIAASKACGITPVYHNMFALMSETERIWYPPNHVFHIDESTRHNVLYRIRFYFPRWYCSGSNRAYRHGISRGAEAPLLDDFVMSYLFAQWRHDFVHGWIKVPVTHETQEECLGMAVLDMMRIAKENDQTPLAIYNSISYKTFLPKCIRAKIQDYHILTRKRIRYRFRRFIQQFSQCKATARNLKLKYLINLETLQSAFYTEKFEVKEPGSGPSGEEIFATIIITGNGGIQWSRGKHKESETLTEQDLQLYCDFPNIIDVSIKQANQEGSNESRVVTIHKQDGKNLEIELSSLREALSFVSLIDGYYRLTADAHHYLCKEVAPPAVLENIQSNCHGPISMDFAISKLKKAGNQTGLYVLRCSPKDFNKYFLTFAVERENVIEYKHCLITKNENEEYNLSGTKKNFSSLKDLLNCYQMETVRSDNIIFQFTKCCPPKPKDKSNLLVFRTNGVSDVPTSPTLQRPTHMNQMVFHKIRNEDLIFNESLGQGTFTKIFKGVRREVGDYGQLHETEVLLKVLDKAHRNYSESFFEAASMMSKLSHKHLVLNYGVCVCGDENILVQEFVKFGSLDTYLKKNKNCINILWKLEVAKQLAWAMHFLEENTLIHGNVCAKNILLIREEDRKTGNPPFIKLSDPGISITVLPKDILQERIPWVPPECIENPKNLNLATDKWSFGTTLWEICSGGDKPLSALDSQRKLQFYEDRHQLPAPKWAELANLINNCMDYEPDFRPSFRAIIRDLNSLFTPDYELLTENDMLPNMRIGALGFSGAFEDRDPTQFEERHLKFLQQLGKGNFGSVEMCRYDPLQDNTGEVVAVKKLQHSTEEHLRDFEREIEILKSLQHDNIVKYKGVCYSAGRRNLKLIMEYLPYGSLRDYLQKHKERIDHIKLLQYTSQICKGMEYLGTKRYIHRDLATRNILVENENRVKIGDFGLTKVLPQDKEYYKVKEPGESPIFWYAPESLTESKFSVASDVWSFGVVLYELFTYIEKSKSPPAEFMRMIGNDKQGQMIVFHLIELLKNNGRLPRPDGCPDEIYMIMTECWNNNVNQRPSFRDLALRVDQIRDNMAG

Structure (SMILES) | IC50 (JAK2) [nM] | IC50 [1] [nM] | IC50 (JAK1) [nM] | IC50 (TYK2) [nM] | IC50 (JAK3) [nM]
CCC(CC)Cn1ccc2cnc(Nc3cnn(CC(=O)N(C)C)c3)nc21 [Example 5, 2-(4-((7-(2-ethylbutyl)-7H-pyrrolo[2,3-d]pyrimidin-2-yl)amino)-1H-pyrazol-1-yl)-N, N-dimethylacetamide] | < 100 | 1000 to 10000 | < 100 | < 100 | < 100
CC[C@H](Cn1ccc2cnc(Nc3cnn(CC(=O)Nc4ccncc4)c3)nc21)C(C)C [Example 2, (5)-2-(4-((7-(2-ethyl-3-methylbutyl)-7H-pyrrolo[2,3-d]pyrimidin-2-yl)amino)-1H-pyrazol-1-yl)-N-(pyridin-4-yl) acetamide] | < 100 | 1000 to 10000 | < 100 | < 100 | < 100
CC[C@H](Cn1ccc2cnc(Nc3cnn(CC(=O)N(C)S(C)(=O)=O)c3)nc21)C(C)C [Example 4, (5)-2-(4-((7-(2-ethyl-3-methylbutyl)-7H-pyrrolo[2,3-d]pyrimidin-2-yl)amino)-1H-pyrazol-1-yl)-N-methyl-N-(methylsulfonyl) acetamide] | < 100 | 100 to 1000 | < 100 | < 100 | < 100
CCC(CC)Cn1ccc2cnc(Nc3cnn(CC(=O)NC)c3)nc21 [Example 6, 2-(4-((7-(2-ethylbutyl)-7H-pyrrolo[2,3-d]pyrimidin-2-yl)amino)-1H-pyrazol-1-yl)-N-methylacetamide] | < 100 | 100 to 1000 | < 100 | < 100 | < 100

From US20230024521A1, “JAK INHIBITORS” (Vimalan Biosciences, Inc., priority 2019, published 2023)
